These results are taken from ChEMBL document CHEMBL1137909, “Synthesis and in vitro evaluation of (S)-2-([11C]methoxy)-4-[3-methyl-1-(2-piperidine-1-yl-phenyl)-butyl-carbamoyl]-benzoic acid ([11C]methoxy-repaglinide): a potential beta-cell imaging agent” (Bioorg Med Chem Lett, 2004).

The species entered for test [1] is Rattus norvegicus. The experiment in a line: In vitro ability to stimulate insulin was determined at (15 mM glucose). It is filed as functional.
For test [2], the species on record is Rattus norvegicus. The experiment in a line: In vitro ability to stimulate insulin was determined at (5 mM glucose+0.1 uM compound). Type of test: functional.
In test [3] the target is T1, ATP-binding cassette sub-family C member 8 (Homo sapiens, UniProt Q09428). The experiment in a line: Displacement of [3H]glibenclamide from COS-1 cells expressing Sulfonylurea receptor 1 (SUR-1). It is filed as cell-based.
T1 sequence (Q09428 whole entry): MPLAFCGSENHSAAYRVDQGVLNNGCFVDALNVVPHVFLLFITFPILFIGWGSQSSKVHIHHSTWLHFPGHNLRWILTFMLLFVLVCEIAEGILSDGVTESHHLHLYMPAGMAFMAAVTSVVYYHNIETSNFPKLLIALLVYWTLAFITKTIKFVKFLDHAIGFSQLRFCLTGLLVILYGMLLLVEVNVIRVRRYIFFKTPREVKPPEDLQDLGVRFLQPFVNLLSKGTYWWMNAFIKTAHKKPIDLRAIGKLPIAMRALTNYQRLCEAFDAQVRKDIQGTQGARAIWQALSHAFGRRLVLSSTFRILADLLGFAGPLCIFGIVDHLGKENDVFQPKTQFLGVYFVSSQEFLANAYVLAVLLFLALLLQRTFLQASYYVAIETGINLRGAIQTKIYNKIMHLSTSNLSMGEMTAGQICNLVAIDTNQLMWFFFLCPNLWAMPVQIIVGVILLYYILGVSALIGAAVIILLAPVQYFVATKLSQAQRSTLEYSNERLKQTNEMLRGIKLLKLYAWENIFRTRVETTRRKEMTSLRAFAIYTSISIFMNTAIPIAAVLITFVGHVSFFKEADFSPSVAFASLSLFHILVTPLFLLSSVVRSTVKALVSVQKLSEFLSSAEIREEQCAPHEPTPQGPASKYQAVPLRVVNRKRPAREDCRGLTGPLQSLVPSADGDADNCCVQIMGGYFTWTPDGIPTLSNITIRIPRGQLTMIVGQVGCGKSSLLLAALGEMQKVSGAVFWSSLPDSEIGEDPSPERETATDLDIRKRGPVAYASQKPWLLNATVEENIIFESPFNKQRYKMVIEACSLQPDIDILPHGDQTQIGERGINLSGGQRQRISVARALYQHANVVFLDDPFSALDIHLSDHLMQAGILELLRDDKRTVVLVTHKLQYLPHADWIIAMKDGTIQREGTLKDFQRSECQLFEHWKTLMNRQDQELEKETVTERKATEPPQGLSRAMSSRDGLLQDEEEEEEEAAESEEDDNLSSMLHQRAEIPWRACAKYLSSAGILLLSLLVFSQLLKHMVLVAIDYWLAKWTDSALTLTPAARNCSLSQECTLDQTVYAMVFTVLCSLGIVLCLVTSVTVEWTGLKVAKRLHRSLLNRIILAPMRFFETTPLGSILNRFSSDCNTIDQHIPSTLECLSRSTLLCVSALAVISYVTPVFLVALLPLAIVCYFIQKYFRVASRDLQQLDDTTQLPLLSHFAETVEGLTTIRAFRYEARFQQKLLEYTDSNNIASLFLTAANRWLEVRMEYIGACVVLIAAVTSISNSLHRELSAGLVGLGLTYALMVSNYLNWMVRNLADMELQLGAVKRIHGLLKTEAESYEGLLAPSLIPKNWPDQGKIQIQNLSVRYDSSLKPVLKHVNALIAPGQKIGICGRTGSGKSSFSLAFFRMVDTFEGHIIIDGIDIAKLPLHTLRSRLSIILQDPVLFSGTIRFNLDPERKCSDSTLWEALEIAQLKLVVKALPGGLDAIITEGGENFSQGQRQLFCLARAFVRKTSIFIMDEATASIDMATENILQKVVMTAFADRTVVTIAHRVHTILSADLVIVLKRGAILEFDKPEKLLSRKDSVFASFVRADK
For test [4], the target named is T1, ATP-binding cassette sub-family C member 8. The experiment in a line: In vitro displacement of [3H]glibenclamide (IC50=0.61) from COS-1 cells expressing Sulfonylurea receptor 1 (SUR-1). It is filed as cell-based.
The species entered for test [5] is Rattus norvegicus. The experiment in a line: Percent stimulation index to stimulate insulin was determined. Type of test: functional.
For test [6], the species on record is Rattus norvegicus. The experiment in a line: Percent relative stimulation index to stimulate insulin was determined. It is filed as functional.

pIC50, pKd: −log10 of the molar value.

As for `CCOc1cc(CC(=O)N[C@@H](CC(C)C)c2ccccc2N2CCCCC2)ccc1C(=O)O` [REPAGLINIDE], the Insulin release in test [1] was determined as 4 ng/islet/1h; in test [2], 2.1 ng/islet/1h. For the same molecule, in test [3], the pKd was 7.30. The same molecule had a pIC50 in test [4] of 6.97. For the same molecule, the Stimulation index in test [5] was determined as 1.9 fold. In test [6], this molecule returned a Relative stimulation index of 63%.

In test [3], `CC(C)C[C@H](NC(=O)Cc1ccc(C(=O)O)c(OCCF)c1)c1ccccc1N1CCCCC1` showed a pKd of 6.87. The pIC50 in test [4] is 6.55.

For `COc1cc(CC(=O)N[C@@H](CC(C)C)c2ccccc2N2CCCCC2)ccc1C(=O)O`, the results for the Insulin release in test [1] and in test [2] were 4 ng/islet/1h and 2 ng/islet/1h, respectively. The pKd in test [3] is 7.08. The same molecule showed a pIC50 in test [4] of 6.79. In addition, in test [5], the Stimulation index came out at 2 fold. The molecule further gave a Relative stimulation index in test [6] of 64%.
